# Tests used:
# [1] = tested on: rice sheath blight fungus (Rhizoctonia solani); assay: Efficacy test on rice sheath blight, spray treatment and prevention test (Test Examples 5-6); assay type: in vivo; details: single compound 250 ppm, lesion height
# Experimental: An agent comprising the following compound listed in Table 2 (active ingredient A) and the compound listed in Table 6 (C17: active ingredient B) as active ingredients, was prepared in accordance with the above Formulation Example. The agent was diluted with water to a predetermined concentration to obtain a test solution. Then, in a plastic pot of 90 cm^3, rice (Nipponbare) was seeded by 5 grains in one place, and to the grown seedlings in 4 seedling phase, the test solution was applied by a spray gun in an amount of 5 ml per pot, for treatment.
# One day after the treatment, 1 g of mycelium flora of rice sheath blight fungus (Rhizoctonia solani) cultured in bran medium, was put by […] to a close-to-ground part of seedlings, and the pot was placed in a moist chamber set in temperature of 25° C. and humidity more than 95% RH for eight days. The height of the lesions which appeared in the highest position from the close-to-ground part (lesion height) was investigated, and the preventive value was calculated in accordance with the following formula. Preventive value=[1−(treated plot lesion height/untreated plot lesion height)]×100
# Further, from the preventive value for each agent concentration, synergy was calculated by using the Colby method (Colby S. R. 1976, Weeds 15, 20-22).
# Using the following compound listed in Table 2 (active ingredient A) and the compound listed in Table 6 (C17: active ingredient B) as active ingredients, a preventive test on rice sheath blight was conducted in accordance with the above Test Example 5.
# [2] = tested on: wheat glume blotch (Leptosphaeria nodorum); assay: Efficacy test on wheat glume blotch, spray treatment and prevention test (Test Example 8); assay type: in vivo; details: spray, lesion area ratio; for pest or weed control at 3 ppm / pest or weed control at 10 ppm: Parastagonospora nodorum, read-out: Preventive value
# Outline: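 Wheat seedlings (Haruyutaka, 1-leaf stage) sprayed with diluted two-component formulation; one day later spray-inoculated with L. nodorum spores (1×100,000 cfu/ml), 48 h at 20° C, >95% RH, then 7 days greenhouse. Lesion area ratio gives preventive value versus untreated; synergy assessed by Colby method.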
Structure (SMILES),Preventive value ([1]; Test Example 5),Preventive value ([2]; single compound 3 ppm),Preventive value ([2]; single compound 10 ppm),Preventive value ([1]; Test Example 6),melting point,pest or weed control at 3 ppm ([2]; single compound 3 ppm),pest or weed control at 10 ppm ([2]; single compound 10 ppm)
CC(C)O/N=C(/CNC(=O)c1ccccc1C(F)(F)F)c1ncc(Cl)cc1Cl [Compound No. 4],7,40,65,,,,
COc1c(Cl)cnc(C(CNC(=O)c2ccccc2C(F)(F)F)=NOC(C)C)c1Cl [Compound No. 9],,60,75,10,,,
"CC#Cc1cnc(/C(CNC(=O)c2cn(C)nc2C(F)F)=N\OC(C)C)c(Cl)c1 [Compound No. 20, (Z)—N-[2-[3-chloro-5-(1-propynyl)pyridin-2-yl]-2-(isopropoxyimino)ethyl]-3-difluoromethyl-1-methyl-1H-pyrazole-4-carboxamide]",0,,,,102 to 103 °C,80%,85%
"CC(C)O/N=C(/CNC(=O)c1cn(C)nc1C(F)F)c1ncc(C#CC2CC2)cc1Cl [Compound No. 25, (Z)—N-[2-[3-chloro-5-(cyclopropylethynyl)pyridin-2-yl]-2-(isopropoxyimino)ethyl]-3-difluoromethyl-1-methyl-1H-pyrazole-4-carboxamide]",,,,8,105 to 107 °C,75%,85%
CC(C)ON=C(CNC(=O)c1ccccc1C(F)(F)F)c1ncc(C(F)(F)F)cc1Cl [compound 14],6,75,80,,,,
CON=C(CNC(=O)c1cn(C)nc1C(F)F)c1ncc(C#CC(C)(C)C)cc1Cl [compound 28],9,60,85,,,,
